US11554126B2, “Methods of treating residual lesions of vascular anomalies” (Georgetown University, priority 2017, dated 2023)

Tested on: fibrofatty residua (FFR) from an involuted infantile hemangioma
Assay type: in vivo, human
Excerpt: A child was referred for treatment of an involuted IH. They were concerned about the visual appearance and the feeling of fullness caused by the significant convexity of the tumor. […] Initial measurement was 0.8 cm high and 7.5 cm wide. Management options including surgical excision and laser treatments were discussed. The patient's parent was apprehensive regarding surgery due to the inherent risks of scarring, nerve damage, infection, bleeding, and tissue necrosis.
As an alternative to these options, the present inventors considered administering DCA to the patient to reduce the protuberance of the mass. The associated risks of DCA administration, as well as off-label use, and lack of pediatric approval were discussed with the patient. Two series of injections were planned.
The site was anesthetized with a topical 40% lidocaine ointment. Following prepping with alcohol, an injection grid modified to overlay the affected tissue was applied. Subsequently, 0.2 mL of DCA concentrated to 2 mg/cm^2 was injected at 1 cm intervals using a total of 4.4 mL, followed by the application of ice packs.
As planned, injections were repeated 3 months later, using an additional 4.2 mL. […] The FFR measured 0.2 cm high and 6.4 cm wide (FIG. 2A-2B). […] Some of the superifical vessels appeared to resolve completely (clinically go away/not visible after treatment) post treatment.

In the case of `C[C@H](CCC(=O)O)[C@H]1CC[C@H]2[C@@H]3CC[C@@H]4C[C@H](O)CC[C@]4(C)[C@H]3C[C@H](O)[C@]12C` [DCA, 3α,12α-dihydroxy-5β-cholan-24-oic acid], the “improvement in visual appearance and degree of protrusion” value (after two series of intralesional DCA, two months after second injection) was “significant improvement”, the “duration of moderate post-injection pain, erythema, bruising, and swelling” value (female, human, in vivo) was 24 to 48 h and the “improvement after the first treatment” value (first series, 0.2 mL injections at 1 cm intervals, total 4.4 mL) was “marginal improvement”. For the same compound, the skin tension (in vivo) was “either maintained or enhanced”, the “tolerability of the procedure” value (in vivo) was “tolerated the procedure well” and the “visible superficial vessels and telangiectasias in the FFR” value (post treatment, some of the vessels, some appeared to resolve completely) was “decreased in size, caliber, and/or lightened in color”. For the same compound, the “FFR height, final measurement post-treatment” value (right flank, after two series of intralesional DCA (4.4 mL, then 4.2 mL 3 months later), two months after second injection, baseline 0.8 cm) was 0.2 cm and the “FFR width, final measurement post-treatment” value (right flank, after two series of intralesional DCA (4.4 mL, then 4.2 mL 3 months later), two months after second injection, baseline 7.5 cm) was 6.4 cm.
